Results: patent publication US6380169B1, “Metal complex containing oligonucleoside cleavage compounds and therapies” (ISIS Pharmaceuticals, Inc., priority 1994, dated 2002)

System: 5′-capped RNA transcript (SEQ ID NO:1)
Assay: Cleavage of 3′-end-labeled, 5′-capped RNA by Eu[THED]^3+ (single strand or hybridized to complementary 18-mer DNA oligomer)
Type: biochemical
Conditions: 1 mM Eu[THED]^3+
Protocol: In particular, the ability of Eu[THED]^3+ to hydrolyze 5′-capped RNA was established using a 3′-radiolabeled, 5′-capped RNA transcript.
A target oligonucleotide transcript having the following sequence was used (SEQ ID NO:1):
5′-capped RNA was made from the above amplicon using a T7 MEGAshortscript™ transcription kit (Ambion). 5′-capped transcripts were synthesized in a 20 μL reaction volume containing transcription buffer, T7 RNA polymerase, 7.5 mM rNTPs (except rGTP), 1.9 mM rGTP, 7.5 mM ^7MeGpppG and 200 nM DNA amplicon template. For synthesis of uncapped RNA, the capping dinucleotide was omitted from the reaction and rGTP concentration was increased to 7.5 mM. Reaction mixtures were incubated four hours at 37° C. After the transcription reaction was complete, template DNA was digested with 1 U DNase for 15 minutes at 37° C. Transcripts were purified from unincorporated nucleotides and truncated message by PAGE. The transcripts were visualized by UV back shadowing, and the RNA in the excised gel bands was purified using an RNaid™ kit (Bio 101) which is designed specifically for purification of RNA from polyacrylamide gels. As expected, the product of the 5′-capped RNA reaction contained a band that ran one base slower than the uncapped transcript on a 15% gel.
Transcripts were 3′ end-labeled with ^32p cordycepin triphosphate using terminal transferase. This enzyme prefers DNA as a substrate, but limited labeling of RNA can be achieved with the use of Co^++. As expected, 3′-end-labeling occurred, but the extent of labeling was low.
After preparing 3′-end-labeled, 5′-capped RNA, the ability of Eu[THED]^3+ to cleave (or “decapitate”) the cap structure of the RNA was tested. The reaction conditions were as follows: 1 mM Eu[THED]^3+, 75 μM capped RNA target (˜3 mM with respect to phosphate bonds), 20 mM Tris-HCl, pH 7.0, 100 mM NaCl and 0.2% SDS. A second set of samples further contained 100 μM of an 18-mer DNA oligomer which was complementary to the sequence immediately adjacent to the 5′-cap. […]

[1] = Hybrid (100 μM 18-mer DNA), time 0 min
[2] = Hybrid (100 μM 18-mer DNA), time 15 min
[3] = Hybrid (100 μM 18-mer DNA), time 30 min
[4] = Hybrid (100 μM 18-mer DNA), time 60 min
[5] = Hybrid (100 μM 18-mer DNA), time 120 min
[6] = Hybrid (100 μM 18-mer DNA), time 180 min

europium (III) complex of 1,4,7,10-tetrakis (2-hydroxyethyl)-1,4,7,10-tetraazacyclododecane [Eu[THED]]
Capped RNA counts/area [1]: 3975 counts/area
Decapitated RNA counts/area [1]: 1031 counts/area
Capped RNA counts/area [2]: 4073 counts/area
Decapitated RNA counts/area [2]: 923 counts/area
Capped RNA counts/area [3]: 4070 counts/area
Decapitated RNA counts/area [3]: 1073 counts/area
Capped RNA counts/area [4]: 3315 counts/area
Decapitated RNA counts/area [4]: 1583 counts/area
Capped RNA counts/area [5]: 3509 counts/area
Decapitated RNA counts/area [5]: 1946 counts/area
Capped RNA counts/area [6]: 2658 counts/area
Decapitated RNA counts/area [6]: 1934 counts/area
backbone cleavage of RNA (either data set (ssRNA and hybrid), 75 μM capped RNA): no evidence of backbone cleavage
Capped RNA counts/area (ssRNA, time 0 min): 3266 counts/area
Decapitated RNA counts/area (ssRNA, time 0 min): 1130 counts/area
Capped RNA counts/area (ssRNA, time 30 min): 3481 counts/area
Decapitated RNA counts/area (ssRNA, time 30 min): 1736 counts/area
Capped RNA counts/area (ssRNA, time 120 min): 2232 counts/area
Decapitated RNA counts/area (ssRNA, time 120 min): 2195 counts/area
Capped RNA counts/area (ssRNA, time 180 min): 1982 counts/area
Decapitated RNA counts/area (ssRNA, time 180 min): 1949 counts/area
